Entries after “also recorded” stand apart in the source; their conditions may differ.
System: stress granules (α-G3BP1) in HeLa cells
Experiment: Dose-dependent inhibition of induced stress granules in HeLa cells by immunofluorescence
Assay type: cell-based
Details: 2 h
Experimental: FIGS. 15A-15C. […] (FIG. 15B) Box and whisker plot of the number of SGs per cell from immunofluorescence images of G3BP1+SuTEx fragment ligand treatments in [COMPOUND LEFT OUT]-stressed cells from FIG. 15A (“x” indicates the mean; the center line is the median). […] A two-sample Student's t-test was performed for statistical comparison. (FIG. 15C) The average number of SGs per cell from FIG. 15B was plotted as a function of HHS-166 concentrations from cellular treatments to estimate the EC50 (~8 μM) for [COMPOUND LEFT OUT]-induced SG inhibition in situ. Data shown are representative of n=2 biologically independent replicates.
Immunofluorescence. Immunofluorescence (IF) of HEK293T cells was performed as previously described in Ciancone et al., 2022. HeLa cells were seeded at 9.0×10^4 in a 24-well plate with 12-mm glass coverslips. The next day, the cells were treated with 25 μM SuTEx probe for 2 hours in DMEM medium without FBS. The cells were then treated with 75 μM NaAsO2 for 30 minutes and fixed with 3% paraformaldehyde in PBS for 15 minutes at room temperature (RT) and washed with PBS twice. The fixed cells were permeabilized with PBST (0.1% Triton X-100) for 15 minutes at room temperature and blocked with 5% goat serum in PBST for 30 minutes at RT. The cells were incubated with anti-G3BP1 antibody H-10 (Catalog No. sc-365338 at 1:200 dilution; Santa Cruz Biotechnology, Inc., Dallas, Texas, United States of America) for 2 hours at RT and washed with PBST (0.1% Tween-20) for 5 minutes three times. Next, cells were incubated with goat anti-mouse Alexa 594 antibody (Catalog No. 115-585-003 at 1:800 dilution; Jackson ImmunoResearch, West Grove, Pennsylvania, United States of America) for 30 minutes at RT. […] A CellProfiler pipeline was developed to quantify the number of stress granules under each condition. Briefly, cells were recognized as blue^+ (nuclei) red^+ (G3BP1) objects, and the red^+ granules that meet the shape and size threshold were identified and counted. Cells on the border of linages were excluded from the analysis for more accurate quantification.

EC50 (Homo sapiens, in situ, 1-25 μM, n=2, read-out: EC50 for induced SG inhibition): 8 µM
Compound: COc1ccc(S(=O)(=O)n2cc(C3CCCCC3)nn2)cc1 [HHS-166, 4-Cyclohexyl-1-((4-methoxyphenyl)sulfonyl)-111-1,2,3-triazole]
dose dependence of SG inhibition (in words) (1-25 μM): dose-dependent inhibition; also recorded: dose-dependent effects on SG formation
minimal effective concentration (Homo sapiens, p<0.001, read-out: concentration giving statistically significant decrease in SG formation): ≥ 12.5 µM

Reference: patent US20260294874A1, “COMPOSITIONS COMPRISING MODULATORS OF RIBONUCLEOPROTEIN GRANULE FORMATION AND DISSOLUTION AND METHODS OF USE THEREOF” (University of Virginia Patent Foundation, priority 2023, published 2026)
